Laboratory results taken from patent US20140037798A1, “LIQUID NUTRITIONAL PRODUCTS COMPRISING METAL AMINO ACID CHELATES” (ABBOTT LABORATORIES, priority 2011, published 2014).

Columns and labels:
[1] = Methionine sulfoxide concentration in nutritional emulsion, marker of reactive oxygen species generation; assay type: physicochemical; conditions: copper ingredient 35 μM, retort sterilized
[2] = Vitamin B12 recovery in retort sterilized chocolate flavored nutritional emulsion (validated HPLC); conditions: copper ingredient 35 μM
Procedure: Once prepared, the emulsions are analyzed for vitamin B12 recovery using a fully validated HPLC method to determine the amount of vitamin B12 remaining (i.e., not lost to oxidative destruction) in the nutritional emulsion.

[3] = cocoa powder 0.80% (w/w), pH 6.8 HEPES, cocoa powder:iron 40:1, 99° C. thirty minutes, 0.45 μm filtrate
Procedure: The visible absorbance of liquids including a mixture of cocoa powder and an iron-containing component is measured to determine the ability of various ferric salts, including ferric amino acid chelates, to decrease reactivity between the iron and the cocoa powder.
Various samples are prepared as described herein using various iron-containing components. All mixtures contain cocoa powder at 0.80% (w/w) in pH 6.8 buffer (0.10M HEPES). The control liquid is prepared without any iron-containing component. In the remaining samples, the iron components are added so that the weight ratio of cocoa powder:iron is 40:1 (w/w).

Row | Compound | Methionine sulfoxide, as mole % of total methionine [1] [%] | Vitamin B12 [2] [µg/kg] | Absorbance, Filtrate v. Blank, 535 nm [3] [mAU] | Absorbance, Filtrate v. Blank, 600 nm [3] [mAU] | Absorbance, Filtrate v. Blank, 700 nm [3] [mAU]
1 | O.O.O.O.O.O=S(=O)([O-])[O-].[Cu+2] [Control (CuSO4), copper sulfate pentahydrate, reference compound] | 18.8 | 38.5 | – | – | –
2 | NCC(=O)[O-].NCC(=O)[O-].[Cu+2] [Copper bis-glycinate chelate, copper bis-glycinate chelate] | 18.1 | 41.3 | – | – | –
3 | O=P([O-])([O-])[O-].[Fe+3] [Ferric orthophosphate, reference compound] | – | – | 579 | 237 | 65
4 | NCC(=O)[O-].NCC(=O)[O-].[Fe+2] [Ferrous bis-glycinate] | – | – | 1200 | 1040 | 567
5 | Ferric bis-glycinate | – | – | 610 | 319 | 101
6 | Ferrous gluconate | – | – | 1230 | 1100 | 607
7 | Ferrous sulfate [reference compound] | – | – | 1240 | 1150 | 688
8 | copper gluconate | 17.9 | 46.4 | – | – | –
9 | copper lysine chelate | 17.4 | 47.0 | – | – | –
